# Reference: ChEMBL document CHEMBL4602729, “O-Alkyl Hydroxamates Display Potent and Selective Antileishmanial Activity” (J Med Chem, 2020)
# Activity calls are given as the source filed them. No cut-off for these calls is given here.
# Legend:
# [1] = Solubility of the compound in plasma (unknown origin); format: ADME, cell-free
# Leishmania donovani = test: Antileishmanial activity against Leishmania donovani MON-2 intracellular amastigotes; format: functional, organism-based; details: Leishmania donovani, MON-2
# [2] = Toxicity in BALB/c mouse infected with Leishmania infantum MON-1 promastigotes assessed as swelling of kidney at 10 to 25 mg/kg, ip administered daily for 14 days starting from 28 days post infection using PLGA nanoparticle incorporated compound; format: organism-based; details: in vivo
# Leishmania infantum [3] = test: (§1) Antileishmanial activity against Leishmania infantum MON-1 promastigotes infected in BALB/c mouse assessed as reduction in liver parasite load at 25 mg/kg, ip administered daily for 14 days starting from 28 days post infection using PLGA nanoparticle incorporated compound measured post last dose by Taqman qRT-PCR analysis relative to control; format: functional; set-up: scale not given: the % may be the effect or the level left
# Leishmania major = test: Antileishmanial activity against Leishmania major MON-4 intracellular amastigotes; format: functional, organism-based; details: Leishmania major, MON-4
# [4] = Sub-acute toxicity in Swiss mouse at 25 to 200 mg/kg administered as for 14 days and measured on day 28; format: organism-based; details: in vivo, 336 h
# [5] = Toxicity in BALB/c mouse infected with Leishmania infantum MON-1 promastigotes assessed as enzymatic alteration in serum at 10 to 25 mg/kg, ip administered daily for 14 days starting from 28 days post infection using gold nanoparticle incorporated compound; format: organism-based; details: in vivo
# [6] = Drug metabolism in human liver microsomes assessed as compound 12 formation at 1 uM measured after 30 mins by LC-MS/MS analysis; format: ADME, Microsome; details: 0.5 h
# [7] = Solubility of the compound in water; format: physicochemical
# [8] = Toxicity in BALB/c mouse infected with Leishmania infantum MON-1 promastigotes assessed as weight loss at 10 to 25 mg/kg, ip administered daily for 14 days starting from 28 days post infection using gold nanoparticle incorporated compound; format: organism-based; details: in vivo
# [9] = Mutagenicity in Salmonella typhimurium TA98 at 10 to 75 uM measured after 5 days in presence of S9 fraction by Ames test; format: toxicity, subcellular; details: salmonella enterica subsp. enterica serovar typhimurium, s9, 120 h
# [10] = Toxicity in Swiss mouse at 500 mg/kg administered as single dose measured after 28 days; format: organism-based; details: in vivo, 672 h
# Leishmania infantum [11] = test: Antileishmanial activity against Leishmania infantum MON-1 intracellular amastigotes infected in Swiss mouse BMDM measured after 48 hrs by Giemsa staining based optical microscopic analysis; format: functional, organism-based; details: Leishmania infantum, MON-1, BMDM, 48 h
# [12] = Toxicity in BALB/c mouse infected with Leishmania infantum MON-1 promastigotes assessed as histological changes at 10 to 25 mg/kg, ip administered daily for 14 days starting from 28 days post infection using gold nanoparticle incorporated compound; format: organism-based; details: in vivo
# Cytochrome P450 2C9 = Cytochrome P450 2C9 (Homo sapiens, UniProt P11712); test: Inhibition of CYP2C9 in human liver microsomes using diclofenac as substrate measured after 45 mins by LC-MS/MS analysis; format: ADME
# Sequence of Cytochrome P450 2C9 (P11712 whole entry): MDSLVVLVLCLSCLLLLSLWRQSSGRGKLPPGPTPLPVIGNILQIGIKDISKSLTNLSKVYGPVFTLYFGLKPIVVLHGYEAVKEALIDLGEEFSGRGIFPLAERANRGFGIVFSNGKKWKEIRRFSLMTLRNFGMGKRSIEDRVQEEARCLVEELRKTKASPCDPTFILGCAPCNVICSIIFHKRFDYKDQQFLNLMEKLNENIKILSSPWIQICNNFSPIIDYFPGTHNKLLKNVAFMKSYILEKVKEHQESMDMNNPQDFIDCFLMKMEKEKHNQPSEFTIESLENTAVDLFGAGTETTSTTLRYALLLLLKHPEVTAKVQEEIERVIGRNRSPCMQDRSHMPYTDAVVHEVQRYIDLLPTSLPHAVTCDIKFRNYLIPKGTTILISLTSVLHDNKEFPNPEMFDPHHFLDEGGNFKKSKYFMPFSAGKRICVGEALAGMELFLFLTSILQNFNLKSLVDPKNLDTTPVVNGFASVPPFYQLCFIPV
# Leishmania infantum [13] = test: Antileishmanial activity against Leishmania infantum MON-1 intracellular amastigotes infected in Swiss mouse BMDM assessed as reduction in parasite load at 3.21 uM measured after 48 hrs using PLGA nanoparticle incorporated compound by Giemsa staining based optical microscopic analysis relative to control; format: functional; set-up: scale not given: the % may be the effect or the level left
# [14] = Toxicity in BALB/c mouse infected with Leishmania infantum MON-1 promastigotes assessed as biochemical alteration in serum at 10 to 25 mg/kg, ip administered daily for 14 days starting from 28 days post infection using gold nanoparticle incorporated compound; format: organism-based; details: in vivo
# [15] = Toxicity in BALB/c mouse infected with Leishmania infantum MON-1 promastigotes assessed as biochemical alteration in plasma at 10 to 25 mg/kg, ip administered daily for 14 days starting from 28 days post infection using PLGA nanoparticle incorporated compound; format: organism-based; details: in vivo
# [16] = Toxicity in BALB/c mouse infected with Leishmania infantum MON-1 promastigotes assessed as weight loss at 10 to 25 mg/kg, ip administered daily for 14 days starting from 28 days post infection using PLGA nanoparticle incorporated compound; format: organism-based; details: in vivo
# Leishmania infantum [17] = test: as §1, with “spleen” for “liver”, “10” for “25”, “analysis” for “analysis relative to control”; format: functional, organism-based
# BMDM = test: Cytotoxicity against Swiss mouse BMDM assessed as reduction in cell viability at 14.3 uM measured after 72 hrs using gold nanoparticle incorporated compound by tryphan blue assay; format: cell-based
# Leishmania infantum [18] = test: as §1, with “10” for “25”, “analysis” for “analysis relative to control”; format: functional, organism-based
# [19] = Toxicity in BALB/c mouse infected with Leishmania infantum MON-1 promastigotes assessed as enzymatic alteration in plasma at 10 to 25 mg/kg, ip administered daily for 14 days starting from 28 days post infection using PLGA nanoparticle incorporated compound; format: organism-based; details: in vivo
# [20] = Half life in human liver microsomes at 1 uM in presence of NADPH by LC-MS/MS analysis; format: ADME, Microsome
# Leishmania infantum [21] = test: as §1, with “gold” for “PLGA”; format: functional; set-up: scale not given: the % may be the effect or the level left
# [22] = Mutagenicity in Salmonella typhimurium TA100 at 10 to 75 uM measured after 5 days in absence of S9 fraction by Ames test; format: toxicity; details: salmonella enterica subsp. enterica serovar typhimurium, s9, 120 h
# [23] = Toxicity in BALB/c mouse infected with Leishmania infantum MON-1 promastigotes assessed as biochemical alteration in plasma at 10 to 25 mg/kg, ip administered daily for 14 days starting from 28 days post infection using gold nanoparticle incorporated compound; format: organism-based; details: in vivo
# Leishmania infantum [24] = test: as §1, with “spleen” for “liver”, “5” for “25”, “gold” for “PLGA”, “dose in presence of meglumine antimoniate” for “dose”; format: functional; set-up: scale not given: the % may be the effect or the level left
# Cytochrome P450 2D6 = Cytochrome P450 2D6 (Homo sapiens, UniProt P10635); test: Inhibition of CYP2D6 in human liver microsomes using dextromethorphan as substrate measured after 30 mins by LC-MS/MS analysis; format: ADME
# Sequence of Cytochrome P450 2D6 (P10635 whole entry): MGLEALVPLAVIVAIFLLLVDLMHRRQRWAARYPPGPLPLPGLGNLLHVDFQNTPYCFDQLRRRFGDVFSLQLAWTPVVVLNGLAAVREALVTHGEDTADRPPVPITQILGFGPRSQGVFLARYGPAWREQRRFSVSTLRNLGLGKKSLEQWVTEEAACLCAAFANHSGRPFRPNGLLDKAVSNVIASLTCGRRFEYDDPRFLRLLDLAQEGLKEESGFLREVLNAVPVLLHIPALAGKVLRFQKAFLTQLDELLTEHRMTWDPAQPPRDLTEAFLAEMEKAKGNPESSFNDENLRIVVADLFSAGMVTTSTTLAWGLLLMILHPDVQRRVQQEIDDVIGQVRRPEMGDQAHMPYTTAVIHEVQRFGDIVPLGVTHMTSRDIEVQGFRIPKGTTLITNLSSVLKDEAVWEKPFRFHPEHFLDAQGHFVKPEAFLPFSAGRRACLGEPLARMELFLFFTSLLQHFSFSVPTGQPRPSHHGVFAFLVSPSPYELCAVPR
# [25] = Toxicity in BALB/c mouse infected with Leishmania infantum MON-1 promastigotes assessed as swelling of spleen at 10 to 25 mg/kg, ip administered daily for 14 days starting from 28 days post infection using gold nanoparticle incorporated compound; format: organism-based; details: in vivo
# [26] = Toxicity in BALB/c mouse infected with Leishmania infantum MON-1 promastigotes assessed as swelling of kidney at 10 to 25 mg/kg, ip administered daily for 14 days starting from 28 days post infection using gold nanoparticle incorporated compound; format: organism-based; details: in vivo
# Leishmania tropica = test: Antileishmanial activity against Leishmania tropica MON-102 intracellular amastigotes; format: functional, organism-based; details: Leishmania tropica, MON-102
# Leishmania infantum [27] = test: as §1, with “5” for “25”, “gold” for “PLGA”, “dose in presence of meglumine antimoniate” for “dose”; format: functional; set-up: scale not given: the % may be the effect or the level left
# Leishmania infantum [28] = test: as §1, with “spleen” for “liver”, “gold” for “PLGA”; format: functional; set-up: scale not given: the % may be the effect or the level left
# [29] = Toxicity in BALB/c mouse infected with Leishmania infantum MON-1 promastigotes at 5 to 10 mg/kg, ip administered daily for 14 days starting from 28 days post infection using gold nanoparticle incorporated compound in presence of meglumine antimoniate; format: organism-based; details: in vivo
structure (smiles),measurement,setting,value
O=C(CCCCCCC(=O)Nc1ccccc1)NOC(c1ccccc1)(c1ccccc1)c1ccccc1,solubility,[1],Insoluble
same,IC50,Leishmania donovani,2.91 µM
same,Activity,[2],Non-Toxic
same,Activity,Leishmania infantum [3],60%
same,IC50,Leishmania major,1 µM
same,Activity,[4],Non-Toxic
same,Activity,[5],Non-Toxic
same,Drug metabolism,[6],Metabolite_Detected
same,solubility,[7],< 100 µg/mL
same,Activity,[8],Non-Toxic
same,Activity,[9],Non-Toxic
same,Activity,[10],Non-Toxic
same,IC50,Leishmania infantum [11],3.21 µM
same,Activity,[12],Non-Toxic
same,IC50,Cytochrome P450 2C9,2.52 µM
same,Activity,Leishmania infantum [13],54%
same,Activity,[14],Non-Toxic
same,Activity,[15],Non-Toxic
same,Activity,[16],Non-Toxic
same,Activity,Leishmania infantum [17],inactive
same,Activity,BMDM,Non-Toxic
same,Activity,Leishmania infantum [18],inactive
same,Activity,[19],Non-Toxic
same,half-life at 1 µM,[20],8.7 min
same,Activity,Leishmania infantum [21],68%
same,Activity,[22],Non-Toxic
same,Activity,[23],Non-Toxic
same,Activity,Leishmania infantum [24],84%
same,IC50,Cytochrome P450 2D6,> 86.2 µM
same,Activity,[25],Non-Toxic
same,Activity,[26],Non-Toxic
same,IC50,Leishmania tropica,0.71 µM
same,Activity,Leishmania infantum [27],98%
same,Activity,Leishmania infantum [28],96%
same,Activity,[29],Non-Toxic
